Columns and labels:
breast cancer MDA-MB-436 [1] = test: In-vivo pharmacodynamic study on subcutaneous xenograft tumor model of breast cancer MDA-MB-436; parameters: species or system NOD/SCID mice; details: for RTV / Tumor volume T/C% / Tumor weight (g) X±SD / Body weight (g) X±SD End / Tumor volume (mm^3) X±SD End: 24 days
Description: Strain: NOD/SCID; Grade: SPF; Source: Beijing Vitron River Bio-technology Co., Ltd.
The cells were washed 3 times with pre-cooled PBS, centrifuged at 300 g for 10 min, collected, re-suspended in PBS, and counted with a blood cell counting chamber, and the cell concentration was adjusted. After cell collection, the cell suspension was pre-cooled on ice. 100 µL of the cell suspension was administered via subcutaneous injection into the dorsal flank of the mice, and the grouped treatment was started when the tumor volume reached 200-300 mm^3.
General observation: Observation of animals: all live experimental animals to be observed; Observation time: twice a day; Observation items: including but not limited to general performance, behavioral status, eyes, mouth, nose and mouth, ears, hair, stool, urine, genitalia and other toxic symptoms; If abnormalities are observed, provide a detailed description.
Animal assay: all viable experimental animals scheduled for assay; Assay time: All animals were weighed before the modeling for test grouping. After modeling, the mice were weighed once every 2 days, and the weight change of the mice was recorded in real time. Effective criteria: tumor volume (TV), relative tumor volume (RTV) and relative tumor growth rate of subcutaneously implanted tumor model. […] The calculation formula of tumor volume (TV) was: TV (mm^3) = a×b2×0.5, where a and b were the long diameter and short diameter, respectively.
The evaluation index for anti-tumor activity was the relative tumor growth rate T/C (%), and the calculation formula was as follows: T/C(%) = TRTV/CRTV × 100%; [formula]
Where, TRTV is relative tumor volume of the treatment group; CRTV is relative tumor volume of the negative control group. Therapeutic evaluation criteria: T/C (%)> 60 is considered ineffective; T/C (%) ≤ 60, and P < 0.05 (through statistical analysis) is considered effective. Measurement of tumor weight and tumor inhibition rate (%): At the end of the treatment period, the animals were euthanize, tumor masses dissected and isolated, tumors weighed, and photographs took. The tumor inhibition rate (%) was calculated by the formula below: [formula]
All raw data within the facility were collected manually according to the experimental scheme and the relevant guidelines of the research institution, or gathered by using a data acquisition system. Manually collected data can be transcribed into software such as Excel for analysis and reporting. The data from each group were quantitative, and the experimental data for each group of animals in the tables were expressed as mean ± standard deviation (Mean ± SD). In the figures, the experimental data ware described as mean ± standard error of the mean (Mean ± SEM). Statistical analysis, including t-tests and survival analysis, was performed by using the software such as EXCEL and GraphPad Prism.
After 24 days of administration, the tumor-bearing mice were anesthetized and euthanized. The tumor tissues were dissected, weighed, and photographed, and the tumor inhibition rate was calculated.

breast cancer MDA-MB-436 [2] = tested on: breast cancer MDA-MB-436; parameters: species or system NOD/SCID mice; details: mouse, in vivo
in vivo = details: male, SD, rat, po
Description: Experimental procedure: The compound, a small amount of DMSO and a sodium chloride injection were added to prepare the final solution for administration. The compound was orally administered to 6 male SD rats. […] The supernatant was collected and transferred into a sample vial for assay. Range of standard curve: 10 - 10,000 ng·mL^-1.

**Q.** Which RTV (breast cancer MDA-MB-436 [1]; 0.03 mg/kg orally once daily) does the source give for `[2H]C([2H])([2H])C([2H])([2H])c1cc2ncc(CN3CC=C(c4ccc(C(=O)NC)nc4)CC3)cc2[nH]c1=O` [Compound 6, 1'-((7-(ethyl-d5)-6-oxo-5,6-dihydro-1,5-naphthyridin-3-yl)methyl)-N-methyl-1',2',3',6'-tetrahy dro-[3,4'-bipyridine]-6-carboxamide] here?
**A.** Its RTV is 2.7.

**Q.** What about the “Tumor volume T/C%” value (breast cancer MDA-MB-436 [1]; 0.03 mg/kg orally once daily) of the same molecule?
**A.** The value was 40.8%.

**Q.** And the “Tumor weight (g) X±SD” value (breast cancer MDA-MB-436 [1]; 0.03 mg/kg orally once daily)?
**A.** Its value is 1.09 ± 0.29 g.

**Q.** And the “Body weight (g) X±SD End” value (breast cancer MDA-MB-436 [1]; 0.03 mg/kg orally once daily)?
**A.** The value was 21.6 ± 0.7 g.

**Q.** And the “Tumor volume (mm^3) X±SD End” value (breast cancer MDA-MB-436 [1]; 0.03 mg/kg orally once daily)?
**A.** Its value is 739.4±308.7 mm^3.

**Q.** What about the “Body weight (g) X±SD Start” value (breast cancer MDA-MB-436 [1]; 0.03 mg/kg orally once daily) of the same molecule?
**A.** The value was 22.6 ± 0.7 g.

**Q.** What about the “Tumor volume (mm^3) X±SD Start” value (breast cancer MDA-MB-436 [1]; 0.03 mg/kg orally once daily) of the same molecule?
**A.** Its value is 275.0±68.1 mm^3.

**Q.** What about the RTV (breast cancer MDA-MB-436 [1]; 0.1 mg/kg orally once daily) of the same molecule?
**A.** The RTV was 0.8.

**Q.** What about the “Tumor volume T/C%” value (breast cancer MDA-MB-436 [1]; 0.1 mg/kg orally once daily) of the same molecule?
**A.** The value was 12.6%.

**Q.** And the “Tumor weight (g) X±SD” value (breast cancer MDA-MB-436 [1]; 0.1 mg/kg orally once daily)?
**A.** Its value is 0.29 ± 0.09 g.

**Q.** And the “Body weight (g) X±SD End” value (breast cancer MDA-MB-436 [1]; 0.1 mg/kg orally once daily)?
**A.** Its value is 21.6 ± 0.7 g.

**Q.** And the “Tumor volume (mm^3) X±SD End” value (breast cancer MDA-MB-436 [1]; 0.1 mg/kg orally once daily)?
**A.** The value was 228.0±75.9 mm^3.

**Q.** And the “Body weight (g) X±SD Start” value (breast cancer MDA-MB-436 [1]; 0.1 mg/kg orally once daily)?
**A.** Its value is 22.3 ± 1.0 g.

**Q.** What about the “Tumor volume (mm^3) X±SD Start” value (breast cancer MDA-MB-436 [1]; 0.1 mg/kg orally once daily) of the same molecule?
**A.** Its value is 274.7±73.8 mm^3.

**Q.** And the RTV (breast cancer MDA-MB-436 [1]; 0.3 mg/kg orally once daily)?
**A.** Its RTV is 0.3.

**Q.** And the “Tumor volume T/C%” value (breast cancer MDA-MB-436 [1]; 0.3 mg/kg orally once daily)?
**A.** The value was 3.8%.

**Q.** And the “Tumor weight (g) X±SD” value (breast cancer MDA-MB-436 [1]; 0.3 mg/kg orally once daily)?
**A.** Its value is 0.09 ± 0.08 g.

**Q.** What about the “complete tumor regression (mice out of 6)” value (breast cancer MDA-MB-436 [1]; 0.3 mg/kg orally once daily, at the end of treatment) of the same molecule?
**A.** The value was 2/6.

**Q.** And the “Body weight (g) X±SD End” value (breast cancer MDA-MB-436 [1]; 0.3 mg/kg orally once daily)?
**A.** The value was 22.0 ± 0.9 g.

**Q.** And the “Tumor volume (mm^3) X±SD End” value (breast cancer MDA-MB-436 [1]; 0.3 mg/kg orally once daily)?
**A.** The value was 71.0±62.5 mm^3.

**Q.** And the “Body weight (g) X±SD Start” value (breast cancer MDA-MB-436 [1]; 0.3 mg/kg orally once daily)?
**A.** The value was 22.3 ± 0.8 g.

**Q.** What about the “Tumor volume (mm^3) X±SD Start” value (breast cancer MDA-MB-436 [1]; 0.3 mg/kg orally once daily) of the same molecule?
**A.** The value was 281.9±67.4 mm^3.

**Q.** And the “anti-tumor efficacy in the model of large-volume tumors” value (breast cancer MDA-MB-436 [2])?
**A.** Its value is “complete regression of tumors”.

**Q.** And the “rate of tumor regression compared to the compounds 1 and 21” value (breast cancer MDA-MB-436 [2])?
**A.** Its value is “faster rate of tumor regression”.

**Q.** And the half-life (in vivo)?
**A.** The half-life was 8.4 h.

Reference: patent EP4606801A1, “FUSED HETEROCYCLIC COMPOUND AND USE THEREOF” (Chengdu Zenitar Biomedical Technology Co., Ltd., priority 2022, dated 2024)
